# Reference: ChEMBL document CHEMBL5614400, “Emerging therapeutics: The imidazo[1,2-b]pyridazine scaffold as a novel drug candidate for eumycetoma, a neglected tropical disease” (Eur J Med Chem, 2024)
# Activity calls are given as the source filed them. The calls are words filed in the database; no cut-off is given here.
# What was measured:
# [1] = tested on: Madurella mycetomatis; test: Antifungal activity against Madurella mycetomatis MM55 by XTT assay; format: functional, organism-based
# [2] = tested on: Madurella mycetomatis; test: Antifungal activity against Madurella mycetomatis MM55 at 25 uM by XTT assay; format: functional, organism-based
# [3] = tested on: Madurella mycetomatis; test: Antifungal activity against Madurella mycetomatis MM55 at 100 uM by XTT assay; format: functional, organism-based
# [4] = tested on: Madurella mycetomatis; test: Antifungal activity against Madurella mycetomatis SO1 by XTT assay; format: functional
# [5] = tested on: Madurella mycetomatis; test: Antifungal activity against Madurella mycetomatis AL1 by XTT assay; format: functional
# [6] = Selectivity index, ratio of IC50 for mouse NIH3T3 cells to IC50 for Madurella mycetomatis MM55; format: toxicity; conditions: read-out: Ratio IC50
# [7] = tested on: Madurella mycetomatis; test: Antifungal activity against Madurella mycetomatis I3 by XTT assay; format: functional
# [8] = tested on: Madurella mycetomatis; test: Antifungal activity against Madurella mycetomatis CBS247.48 by XTT assay; format: functional
# [9] = Cytotoxicity against mouse NIH3T3 cells incubated for 5 days by MTT assay; format: toxicity, cell-based
# [10] = tested on: Madurella mycetomatis; test: Antifungal activity against Madurella mycetomatis P1 by XTT assay; format: functional
# [11] = tested on: Madurella mycetomatis; test: Antifungal activity against Madurella mycetomatis I1 by XTT assay; format: functional
# [12] = tested on: Madurella mycetomatis; test: Antifungal activity against Madurella mycetomatis MM50 by XTT assay; format: functional
# [13] = tested on: Madurella mycetomatis; test: Antifungal activity against Madurella mycetomatis I11 by XTT assay; format: functional
# [14] = tested on: Madurella mycetomatis; test: Antifungal activity against Madurella mycetomatis Peru72012 by XTT assay; format: functional
MIC [4],MIC [5],MIC [7],MIC [8],MIC [10],MIC [11],MIC [12],MIC [13],MIC [14],"MIC ([1]; Madurella mycetomatis, MM55)",Compound,"IC50 ([1]; Madurella mycetomatis, MM55)",selectivity ratio [6],IC50 at 5 days [9],also measured
,,,,,,,,,,CC(C)CCn1cc(-c2cc(N3CCN(C)CC3)nn3cc(-c4ccc(F)cc4)nc23)cn1,10.3 µM,,,
,,,,,,,,,,CN1CCN(c2cc(-c3ccsc3)c3nc(-c4ccc(F)cc4)cn3n2)CC1 [listing 1 of 2 here],,,,Activity [2]: Active; Activity [3]: Active
> 16 µM,> 16 µM,> 16 µM,> 16 µM,> 16 µM,16 µM,> 16 µM,> 16 µM,16 µM,8 µM,OCCN1CCN(c2cc(-c3cnc(N4CCN(CCO)CC4)nc3)c3nc(-c4ccccc4F)cn3n2)CC1,3.8 µM,0.8,1.4 µM,
8 µM,8 µM,8 µM,8 µM,8 µM,8 µM,8 µM,8 µM,16 µM,8 µM,CN1CCN(c2cc(-c3ccsc3)c3nc(-c4ccccc4F)cn3n2)CC1,1.9 µM,3.7,14.6 µM,
,,,,,,,,,,COc1ccccc1-c1cn2nc(N3CCN(C)CC3)cc(-c3ccsc3)c2n1,5.8 µM,,,
16 µM,8 µM,8 µM,8 µM,8 µM,16 µM,8 µM,8 µM,16 µM,8 µM,CN1CCN(c2cc(-c3cccc4[nH]ccc34)c3nc(-c4cccc(F)c4)cn3n2)CC1,1.8 µM,4.8,10.1 µM,
,,,,,,,,,,CN1CCN(c2cc(-c3ccoc3)c3nc(-c4ccc(F)cc4)cn3n2)CC1,,,,Activity [2]: inactive; Activity [3]: Active
4 µM,4 µM,4 µM,2 µM,4 µM,4 µM,4 µM,4 µM,4 µM,8 µM,CN1CCN(c2cc(-c3cnc(N4CCN(C)CC4)nc3)c3nc(-c4cccc(F)c4)cn3n2)CC1,4.7 µM,5.5,10.5 µM,
,,,,,,,,,,CN1CCN(c2cc(-c3cccc4[nH]ccc34)c3nc(-c4ccccc4)cn3n2)CC1 [listing 1 of 3 here],8.3 µM,,,
,,,,,,,,,,CN1CCN(c2cc(-c3cccc4[nH]ccc34)c3nc(-c4ccccc4)cn3n2)CC1 [listing 2 of 3 here],,,,Activity [2]: Active; Activity [3]: Active
,,,,,,,,,,CN1CCN(c2cc(-c3cnn(C)c3)c3nc(-c4ccc(F)cc4)cn3n2)CC1 [listing 1 of 2 here],,,,IC50 [1]: 9.5 µM
16 µM,16 µM,16 µM,16 µM,8 µM,8 µM,16 µM,> 16 µM,8 µM,8 µM,CN1CCN(c2cc(-c3cccc4[nH]ccc34)c3nc(-c4ccccc4)cn3n2)CC1 [listing 3 of 3 here],,2.8,9.9 µM,IC50 [1]: 4.8 µM
,,,,,,,,,,CN1CCN(c2cc(-c3ccc(N)nc3)c3nc(-c4ccccc4F)cn3n2)CC1,9.8 µM,,,
,,,,,,,,,,OCCN1CCN(c2cc(-c3ccsc3)c3nc(-c4ccc(F)cc4)cn3n2)CC1,5.3 µM,,,
16 µM,8 µM,8 µM,8 µM,8 µM,8 µM,8 µM,8 µM,8 µM,4 µM,OCCN1CCN(c2cc(-c3ccsc3)c3nc(-c4ccccc4)cn3n2)CC1,2.6 µM,3.4,13.1 µM,
,,,,,,,,,,CN1CCN(c2cc(-c3cccc4[nH]ccc34)c3nc(-c4ccc(F)cc4)cn3n2)CC1,,,,Activity [2]: Active; Activity [3]: Active
,,,,,,,,,,CN1CCN(c2cc(-c3ccsc3)c3nc(-c4ccc(F)cc4)cn3n2)CC1 [listing 2 of 2 here],,,,IC50 [1]: 5.5 µM
,,,,,,,,,,CN1CCN(c2cc(-c3cnn(C)c3)c3nc(-c4ccc(F)cc4)cn3n2)CC1 [listing 2 of 2 here],,,,Activity [2]: Active; Activity [3]: Active
,,,,,,,,,,CN1CCN(c2cc(-c3cccs3)c3nc(-c4ccc(F)cc4)cn3n2)CC1,8.5 µM,,,
8 µM,8 µM,8 µM,8 µM,8 µM,8 µM,8 µM,4 µM,8 µM,8 µM,CN1CCN(c2cc(-c3ccsc3)c3nc(-c4ccccc4)cn3n2)CC1,3.5 µM,5.1,10.2 µM,
